In assay [1] the target is T1, Bone morphogenetic protein 1 (Homo sapiens, UniProt P13497).
T1 sequence (P13497 whole entry): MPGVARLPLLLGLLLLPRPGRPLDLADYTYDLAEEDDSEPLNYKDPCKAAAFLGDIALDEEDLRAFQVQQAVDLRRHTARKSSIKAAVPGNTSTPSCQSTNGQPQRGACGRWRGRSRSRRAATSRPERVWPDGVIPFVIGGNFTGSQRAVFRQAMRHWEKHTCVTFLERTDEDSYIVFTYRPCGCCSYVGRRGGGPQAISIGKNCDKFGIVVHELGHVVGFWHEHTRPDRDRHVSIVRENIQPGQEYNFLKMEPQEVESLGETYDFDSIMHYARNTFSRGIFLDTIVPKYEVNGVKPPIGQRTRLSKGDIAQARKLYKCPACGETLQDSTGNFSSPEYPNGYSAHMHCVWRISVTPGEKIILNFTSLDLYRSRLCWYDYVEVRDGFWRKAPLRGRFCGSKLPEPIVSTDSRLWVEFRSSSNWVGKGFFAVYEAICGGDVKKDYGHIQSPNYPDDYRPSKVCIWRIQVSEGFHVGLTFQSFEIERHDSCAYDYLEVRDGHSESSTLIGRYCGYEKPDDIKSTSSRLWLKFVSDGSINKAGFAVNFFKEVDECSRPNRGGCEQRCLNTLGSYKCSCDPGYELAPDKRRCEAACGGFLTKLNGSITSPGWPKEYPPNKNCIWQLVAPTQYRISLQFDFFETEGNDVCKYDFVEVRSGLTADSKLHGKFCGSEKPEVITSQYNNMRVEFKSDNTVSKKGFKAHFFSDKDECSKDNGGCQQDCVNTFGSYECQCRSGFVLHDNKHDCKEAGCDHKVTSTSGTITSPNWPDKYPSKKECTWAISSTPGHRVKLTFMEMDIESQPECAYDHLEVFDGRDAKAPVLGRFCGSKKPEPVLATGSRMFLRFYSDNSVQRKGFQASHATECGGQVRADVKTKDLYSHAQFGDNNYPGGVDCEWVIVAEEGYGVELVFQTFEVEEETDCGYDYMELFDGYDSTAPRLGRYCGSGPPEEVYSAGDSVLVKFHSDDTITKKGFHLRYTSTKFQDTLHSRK
The experiment in a line: Inhibition of C-terminal FLAG-6x-His epitope tagged and N-terminal human RAGE signal sequence tagged human BMP1 (23 to 721 amino acids) expressed in CHO-E1 cells pre-incubated for 10 mins before promyostatin peptide substrate addition and measured after 60 mins using 0.5 nM BMP1 by FRET based assay. It counts as cell-based.

Assay [2] has as its target T1, Bone morphogenetic protein 1. The experiment in a line: Inhibition of C-terminal FLAG-6x-His epitope tagged and N-terminal human RAGE signal sequence tagged human BMP1 (23 to 721 amino acids) expressed in CHO-E1 cells pre-incubated for 10 mins before promyostatin peptide substrate addition and measured after 30 mins using 50 nM BMP1 by FRET based assay. The assay is classed as cell-based.

Another assay concerns the target Tolloid-like protein 1 (Homo sapiens, UniProt O43897, I156V/N221S/V284A). Kind of assay: Inhibition of recombinant human TLL1 I156V/N221S/V284A mutant expressed in CHOE1A cells pre-incubated for 10 mins before promyostatin peptide substrate addition and measured after 60 mins by FRET based assay. The assay is classed as cell-based.
The target of another assay is T2, Tolloid-like protein 2 (Homo sapiens, UniProt Q9Y6L7).
T2 sequence (Q9Y6L7 whole entry): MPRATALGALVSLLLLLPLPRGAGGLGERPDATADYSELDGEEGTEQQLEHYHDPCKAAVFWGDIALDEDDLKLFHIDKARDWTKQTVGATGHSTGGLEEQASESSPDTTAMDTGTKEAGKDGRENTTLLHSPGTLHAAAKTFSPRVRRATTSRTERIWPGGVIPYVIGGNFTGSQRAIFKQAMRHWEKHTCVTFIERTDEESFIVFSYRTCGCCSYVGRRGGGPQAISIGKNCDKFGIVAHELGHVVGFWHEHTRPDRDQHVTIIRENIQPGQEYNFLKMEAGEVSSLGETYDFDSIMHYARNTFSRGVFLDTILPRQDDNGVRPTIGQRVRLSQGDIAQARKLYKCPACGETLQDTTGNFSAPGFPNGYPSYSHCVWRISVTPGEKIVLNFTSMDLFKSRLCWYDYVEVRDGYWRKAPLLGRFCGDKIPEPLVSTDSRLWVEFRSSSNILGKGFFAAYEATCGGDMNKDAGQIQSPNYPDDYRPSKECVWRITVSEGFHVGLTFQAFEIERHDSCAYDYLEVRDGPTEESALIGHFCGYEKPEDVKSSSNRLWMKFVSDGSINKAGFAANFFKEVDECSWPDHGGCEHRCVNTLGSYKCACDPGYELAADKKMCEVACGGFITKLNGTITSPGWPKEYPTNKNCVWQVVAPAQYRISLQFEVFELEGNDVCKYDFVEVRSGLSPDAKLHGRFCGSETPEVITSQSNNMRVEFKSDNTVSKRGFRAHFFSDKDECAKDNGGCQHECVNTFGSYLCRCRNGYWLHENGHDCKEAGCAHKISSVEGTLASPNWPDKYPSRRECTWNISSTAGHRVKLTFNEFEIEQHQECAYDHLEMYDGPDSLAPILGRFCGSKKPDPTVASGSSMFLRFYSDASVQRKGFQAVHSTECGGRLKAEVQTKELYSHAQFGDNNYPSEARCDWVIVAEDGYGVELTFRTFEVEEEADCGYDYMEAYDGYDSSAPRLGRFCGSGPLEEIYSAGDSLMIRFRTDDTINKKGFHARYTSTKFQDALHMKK
The experiment in a line: Inhibition of C-terminal Avi-6x-His epitope tagged and N-terminal human RAGE signal sequence tagged recombinant human TLL2 (26 to 1015 amino acids) expressed in CHOE1A cells incubated for 60 mins with promyostatin peptide substrate by FRET based assay. It counts as cell-based.

Assay [3] can be described thus: Reduction in PICP levels in human cardiac fibroblasts incubated for 24 to 48 hrs by ELISA. It counts as functional. A digest of the protocol: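 Human cardiac fibroblasts (passage 6 or below) were seeded at 10,000 to 15,000 cells per well in 96-well plates. The next day they were treated in ficoll crowding EMEM with 100 μM ascorbic acid and under 0.3% DMSO, for 24 to 48 hr at 37° C. Procollagen I C-terminal propeptide in the medium was measured with a Quidel ELISA. IC50 came from fitting levels relative to untreated controls to a log(inhibitor)-response equation in GraphPad Prism.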

Assay [4] can be described thus: Reduction in mature collagen deposition levels in human cardiac fibroblasts incubated for 24 to 48 hrs by immunostaining based assay. It counts as functional. A digest of the protocol: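 Human cardiac fibroblasts in 96-well plates were treated in ficoll crowding EMEM with 100 μM ascorbic acid and under 0.3% DMSO, for 24 to 48 hr at 37° C. Cells were fixed in −20° C methanol for 10 min. They were stained with anti-mature collagen I antibody, Alexa647 secondary antibody and Hoechst, then imaged on an Operetta system. Collagen intensity was normalised to nuclei count per field, and IC50 was fitted in GraphPad Prism.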

Some results are limits rather than exact numbers.

16 compounds from ChEMBL document CHEMBL4476867, “Hydroxy formamide derivatives and their use” (2016) can be followed below.

Chain of Tolloid-like protein 1 (O43897 148-1013 I156V/N221S/V284A limits assumed): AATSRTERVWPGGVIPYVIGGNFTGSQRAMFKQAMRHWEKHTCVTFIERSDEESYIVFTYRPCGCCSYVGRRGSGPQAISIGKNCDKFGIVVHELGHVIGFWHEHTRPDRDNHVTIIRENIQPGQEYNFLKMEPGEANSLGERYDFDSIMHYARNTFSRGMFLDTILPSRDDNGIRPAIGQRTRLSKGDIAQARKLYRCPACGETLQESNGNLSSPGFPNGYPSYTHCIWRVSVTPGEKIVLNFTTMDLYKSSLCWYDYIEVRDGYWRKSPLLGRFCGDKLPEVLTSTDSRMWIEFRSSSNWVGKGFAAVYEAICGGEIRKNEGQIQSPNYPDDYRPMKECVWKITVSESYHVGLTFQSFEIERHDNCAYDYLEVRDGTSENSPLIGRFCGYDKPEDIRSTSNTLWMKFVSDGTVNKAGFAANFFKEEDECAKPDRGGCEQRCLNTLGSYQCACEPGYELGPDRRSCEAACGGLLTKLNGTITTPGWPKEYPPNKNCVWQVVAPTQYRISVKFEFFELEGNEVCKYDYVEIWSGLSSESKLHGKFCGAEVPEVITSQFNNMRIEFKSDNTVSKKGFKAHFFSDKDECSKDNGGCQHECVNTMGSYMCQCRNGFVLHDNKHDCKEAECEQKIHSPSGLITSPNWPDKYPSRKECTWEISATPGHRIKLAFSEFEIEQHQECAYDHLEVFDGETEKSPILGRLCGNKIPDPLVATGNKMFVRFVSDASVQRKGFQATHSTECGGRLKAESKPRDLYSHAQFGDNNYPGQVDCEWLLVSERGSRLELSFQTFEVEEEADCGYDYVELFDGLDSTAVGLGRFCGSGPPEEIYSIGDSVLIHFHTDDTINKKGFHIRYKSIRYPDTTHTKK

Broadly, the IC50 is the point on the concentration scale where inhibition reaches its midpoint. Consider `CCOc1cc(-c2ccc(C(=O)NCNC(=O)[C@H](CCc3ccccc3)[C@@H](CC)N(O)C=O)o2)ccc1C(=O)N(CC(=O)O)CC(=O)O`, for which the IC50 was below 126 nM in assay [1]; below 200 nM in assay [2]; below 398 nM at Tolloid-like protein 1; below 794 nM on Tolloid-like protein 2; below 3.98 µM in assay [3]; below 1000 nM in assay [4].

As for `CCCCC[C@@H](C(=O)NCNC(=O)c1ccc(-c2ccc(C(=O)N[C@H](CC(=O)O)C(=O)O)c(OCC)c2)o1)[C@@H](CC)N(O)C=O`, the IC50 is below 126 nM in assay [1]; below 200 nM in assay [2]; below 398 nM at Tolloid-like protein 1; below 794 nM at Tolloid-like protein 2; below 3.98 µM in assay [3]; below 1000 nM in assay [4].

As for `CCCCC[C@@H](C(=O)NCNC(=O)c1ccc(-c2ccc(CC(=O)N[C@@H](CC(=O)O)C(=O)O)c(OCC)c2)o1)[C@@H](CC)N(O)C=O`, the IC50 in assay [1] was below 126 nM; in assay [2], below 200 nM; at Tolloid-like protein 1 it was below 398 nM; at Tolloid-like protein 2, below 794 nM; in assay [3] it was below 3.98 µM; in assay [4], below 1000 nM.

Take `CCCCC[C@@H](C(=O)NCNC(=O)c1ccc(-c2cc(O)c(C(=O)O)c(OCC)c2)o1)[C@@H](CC)N(O)C=O`: the IC50 in assay [1] was below 126 nM; in assay [2], below 200 nM; at Tolloid-like protein 1, below 398 nM; at Tolloid-like protein 2, below 794 nM; in assay [3], below 3.98 µM; in assay [4], below 1000 nM.

As to `CCCCC[C@@H](C(=O)NCNC(=O)c1ccc(-c2ccccc2)o1)[C@@H](CC)N(O)C=O`, the half-inhibitory concentration (IC50) was below 126 nM in assay [1]; below 200 nM in assay [2]; below 398 nM on Tolloid-like protein 1; below 794 nM at Tolloid-like protein 2; below 3.98 µM in assay [3]; below 1000 nM in assay [4].

In the case of `CCCCC[C@@H](C(=O)NCNC(=O)c1ccc(-c2ccc(C(=O)NCP(=O)(O)O)c(OCC)c2)o1)[C@@H](CC)N(O)C=O`, the half-maximal inhibitory concentration (IC50) in assay [1] is below 126 nM; in assay [2], below 200 nM; on Tolloid-like protein 1, below 398 nM; at Tolloid-like protein 2 it was below 794 nM; in assay [3], below 3.98 µM; in assay [4], below 1000 nM.

For `CCCCC[C@@H](C(=O)NCNC(=O)c1ccc(-c2cc(OCCC)cc(C(=O)O)c2)o1)[C@@H](CC)N(O)C=O`, the IC50 in assay [1] was below 126 nM; in assay [2], below 200 nM; on Tolloid-like protein 1 it was below 398 nM; at Tolloid-like protein 2, below 794 nM; in assay [3], below 3.98 µM; in assay [4] it was below 1000 nM.

In the case of `CCCCC[C@@H](C(=O)NCNC(=O)c1ccc(-c2cc(O)cc(C(=O)O)c2)o1)[C@@H](CC)N(O)C=O`, the IC50 in assay [1] is below 126 nM; in assay [2], below 200 nM; on Tolloid-like protein 1, below 398 nM; at Tolloid-like protein 2 it was below 794 nM; in assay [3], below 3.98 µM; in assay [4], below 1000 nM.

Turning to `CCOc1cc(C(=O)N(CC(=O)O)CC(=O)O)cc(-c2ccc(C(=O)NCNC(=O)[C@H](CCc3ccc(F)cc3F)[C@@H](CC)N(O)C=O)o2)c1`, the IC50 is below 126 nM in assay [1]; below 200 nM in assay [2]; below 398 nM on Tolloid-like protein 1; below 794 nM on Tolloid-like protein 2; below 3.98 µM in assay [3]; below 1000 nM in assay [4].

`CCCCC[C@@H](C(=O)NCNC(=O)c1ccc(-c2cccc(C3(C(=O)O)CC3)c2)o1)[C@@H](CC)N(O)C=O`: the IC50 in assay [1] is below 126 nM; in assay [2] it was below 200 nM; at Tolloid-like protein 1, below 398 nM; on Tolloid-like protein 2, below 794 nM; in assay [3], below 3.98 µM; in assay [4] it was below 1000 nM.

In the case of `CCCCC[C@@H](C(=O)NCNC(=O)c1ccc(-c2cc(OCC(=O)O)cc(C(=O)O)c2O)o1)[C@@H](CC)N(O)C=O`, the IC50 was below 126 nM in assay [1]; below 200 nM in assay [2]; below 398 nM at Tolloid-like protein 1; below 794 nM at Tolloid-like protein 2; below 3.98 µM in assay [3]; below 1000 nM in assay [4].

Regarding `CCCCC[C@@H](C(=O)NCNC(=O)c1ccc(-c2cc(CP(=O)(O)O)cc(OCC)c2)o1)[C@@H](CC)N(O)C=O`, the IC50 in assay [1] was below 126 nM; in assay [2], below 200 nM; on Tolloid-like protein 1, below 398 nM; at Tolloid-like protein 2 it was below 794 nM; in assay [3] it was below 3.98 µM; in assay [4] it was below 1000 nM.

On to `CCCCC[C@H](CN(O)C=O)C(=O)NCNC(=O)c1ccc(-c2ccccc2)o1`, for which the IC50 in assay [1] was below 126 nM; in assay [2] it was below 200 nM; at Tolloid-like protein 1 it was below 398 nM; at Tolloid-like protein 2, below 794 nM; in assay [3] it was below 3.98 µM; in assay [4], below 1000 nM.

Turning to `CCCCC[C@@H](C(=O)NCNC(=O)c1ccc(-c2cc(OCC)cc(C(=O)N[C@@H](CC(=O)O)C(=O)O)c2)o1)[C@@H](CC)N(O)C=O`, the IC50 was below 126 nM in assay [1]; below 200 nM in assay [2]; below 398 nM on Tolloid-like protein 1; below 794 nM at Tolloid-like protein 2; below 3.98 µM in assay [3]; below 1000 nM in assay [4].

Turning to `CCCCC[C@@H](C(=O)NCNC(=O)c1ccc(-c2cc(OCC(=O)O)cc(C(=O)O)c2)o1)[C@@H](CC)N(O)C=O`, the IC50 was below 126 nM in assay [1]; below 200 nM in assay [2]; below 398 nM at Tolloid-like protein 1; below 794 nM at Tolloid-like protein 2; below 3.98 µM in assay [3]; below 1000 nM in assay [4].

Consider `CCCCC[C@@H](C(=O)NCNC(=O)c1ccc(-c2cc(OCC)cc(P(=O)(O)O)c2)o1)[C@@H](CC)N(O)C=O`, for which the IC50 was below 126 nM in assay [1]; below 200 nM in assay [2]; below 398 nM at Tolloid-like protein 1; below 794 nM at Tolloid-like protein 2; below 3.98 µM in assay [3]; below 1000 nM in assay [4].
